Measurements taken from US20220273590A1, “COMPOUNDS FOR PREVENTION AND TREATMENT OF POST-OPERATIVE COGNITIVE DYSFUNCTION” (ABREXA PHARMACEUTICALS, INC., priority 2019, published 2022).

Test system: animal model of POCD
Assay: Novel Object and Novel Location Recognition (NOR/NLR) after abdominal surgery
Type: in vivo, Wistar rats
Description: Male Wistar rats (˜350 g) were randomly divided into 4 experimental groups; non-surgery; control abdominal surgery; surgery+acute J147 treatment (7 mg/rat by gavage, 4-5 hours before surgery); surgery+chronic J147 (500 mg/kg food, 1 week before surgery until the end of the study). Timed blood samples were collected. Days 9-11 post surgery, general behavior (Open field: OF) and cognitive performance (Novel Object/Novel Location Recognition: NOR/NLR; Morris Water Maze: MWM) were tested. Day 14, rats were sacrificed and blood and brain tissue were collected for further analyses. (Neuro)inflammation was examined by circulating cytokine levels and microglia activation in the brain. Abdominal surgery was performed as described previously by Hovens et al., 2014. Rats were anaesthetized using sevoflurane (±2.5% in air/O2=2/1) and received 0.01 mg/kg buprenorphine s.c. A heating blanket was used to preserve body temperature. An incision was made along the linea alba and the intestines were exteriorised. The upper mesenteric artery was isolated from surrounding tissue and clamped for a period of 30 minutes during which the intestines and surgical wound were covered with gauze soaked in saline, to prevent dehydration. During this time the animals were equipped with an indwelling jugular vein catheter to mimic insertion of a venous line in patients and allow timed blood sampling. For that, an incision was made at the subclavical region, the jugular vein was freed from surrounding tissue and a catheter was introduced and advanced into the vena cava, just above the right atrium. The other end of the catheter was guided subcutaneously to the head, and fixated on the skull with dental cement. The catheter was filled with PVP dissolved in heparin solution and closed with a plastic plug. After subsequent removal of the mesenteric artery clamp, the intestines were gently placed back and the abdominal wall and skin were closed separately by sutures. Clamping and reperfusion were visually verified by absence or presence of pulsation in the mesenteric artery distal to the clamp site. From induction to recovery, the procedure takes approximately 60 minutes. Post-operatively, the animals were allowed to recover and subsequently were housed individually. Rats were weighed daily at the last hour of the dark period. Maximal weight loss within the first 5 days post-surgery was taken as measure of experienced severity of surgery. Behavioral tests were performed in the dark (active) period of the rats. The lights were turned on at 9:00 p.m. and off at 9:00 a.m. […] General exploratory behavior and anxiety was tested in the Open field (OF) test; spatial learning, spatial memory and cognitive flexibility in the Morris Water Maze (MWM); spatial working memory in the novel location recognition test (NL); the novel object recognition test (NO) for working memory on object recognition. The Novel Object and Novel Location Recognition were tested in random order in one procedure to assess spatial short term memory and object memory. For this test, an open square box (50×50×40 cm) with 2 transparent and two grey walls was used. Objects used in the test were selected from a pilot study, investigating the preferences of rats for different objects. Rats were habituated to the box for 3 minutes, the day before the test. The test consisted of four phases, each phase took 3 minutes. Between each phase there was a break of 45 seconds in which the rat remained in the test box. The first phase was performed in an empty box, in the second phase two identical objects were placed in both corners at the nearest end of the box. In this phase, the rat was allowed to explore both objects. After this exploration phase either a novel object test or novel location test was performed. Before the start of each phase both objects were removed from the box and cleaned with 70% ethanol. […]

## COc1cccc(/C=N/N(C(=O)C(F)(F)F)c2ccc(C)cc2C)c1 [J147]
Surgery + acute J147, n = 12, random = 50%
  NOR score (novel object preference): 60 ± 5%
Surgery + acute J147, n = 15, mean ± SEM
  Baseline exploration (% time): 23.6 ± 2.3 % time
Surgery + acute J147, n = 15, random = 50%, significantly different from random
  NLR score (novel location preference): 61 ± 4%
Surgery + chronic J147, n = 11, random = 50%, significantly different from random
  NLR score (novel location preference): 70 ± 6%
Surgery + chronic J147, n = 12, random = 50%, significantly different from random
  NOR score (novel object preference): 58 ± 4%
Surgery + chronic J147, n = 15, mean ± SEM
  Baseline exploration (% time): 16.8 ± 2.5 % time
Acute and chronic J147 versus control groups
  difference between the groups in preference for the novel or relocated object: No significant differences
Both treated groups (acute and chronic J147)
  NLR test performance versus random: performed above random
Chronically treated rats
  NLR performance compared with other groups: performed best in NLR
  NOR, effect of treatment: not affected
